Experimental data from patent publication US9051277B2, “Phenyl(oxy/thio)alkanol derivatives” (Bayer Intellectual Property GmbH, priority 2009, dated 2015).

Columns and labels:
Alternaria solani = test: Alternaria test (tomato)/protective; type: in vivo; details: protective, 100 ppm, evaluation 3 days after inoculation
Method: [table] To produce a suitable preparation of active compound, 1 part by weight of active compound is mixed with the stated amounts of solvent and emulsifier, and the concentrate is diluted with water to the desired concentration. To test for protective activity, young plants are sprayed with the preparation of active compound at the stated application rate. After the spray coating has dried on, the plants are inoculated with an aqueous spore suspension of Alternaria solani. The plants are then placed in an incubation cabin at about 20° C. and 100% relative atmospheric humidity.

Pyrenophora teres = Pyrenophora teres test (barley)/protective; type: in vivo; details: protective, evaluation 8 days after inoculation
Method: [table] To produce a suitable preparation of active compound, 1 part by weight of active compound is mixed with the stated amounts of solvent and emulsifier, and the concentrate is diluted with water to the desired concentration. To test for protective activity, young plants are sprayed with the preparation of active compound at the stated application rate. After the spray coating has dried on, the plants are sprayed with a spore suspension of Pyrenophora teres. The plants remain in an incubation cabin at 20° C. and a relative atmospheric humidity of 100% for 48 hours.

Fusarium proliferatum = test: Production of fumonisin FB1 by Fusarium proliferatum; type: cell-based; details: 120 h, read-out: inhibition of fumonisin FB1 production
Fusarium graminearum = test: microbe, parasite or virus in culture; type: cell-based; details: 168 h, read-out: inhibition of DON/AcDON production
Aspergillus parasiticus = test: microbe, parasite or virus in culture; type: cell-based; details: 168 h, read-out: inhibition of aflatoxin production
[1] = tested on: Setaria viridis (green foxtail); test: Phytoregulatory post-emergence action, SETVI; type: in vivo; details: 80 g of a.i./ha, visual rating after about 3 weeks
Method: (§1) Seeds of monocotyledonous and dicotyledonous crop plants are placed in sandy loam in wood-fibre pots, covered with soil and cultivated in a greenhouse under good growth conditions. 2 to 3 weeks after sowing, the test plants are treated at the one-leaf stage. The test compounds, formulated as wettable powders (WP), are, with a water application rate of 600 l/ha (converted), with 0.2% of wetting agent added, sprayed at various dosages onto the green parts of the plants. After the test plants have been kept in the greenhouse under optimum growth conditions for about 3 weeks, the activity of the preparations is rated visually in comparison to untreated controls (phytoregulatory activity in percent: 100% activity=maximum inhibition of plant growth, 0% activity=plant growth like that of an untreated control.)

[2] = tested on: Triticum aestivum (common wheat); test: Phytoregulatory post-emergence action, TRZAS; type: in vivo; details: 80 g of a.i./ha, visual rating after about 3 weeks
Method: as §1

Brassica napus (rape) [3] = test: Phytoregulatory post-emergence action, BRSNW; type: in vivo; details: 80 g of a.i./ha, visual rating after about 3 weeks
Method: as §1

Oryza sativa (rice) = test: Phytoregulatory pre-emergence action, ORYSA; type: in vivo; details: 80 g of a.i./ha, visual assessment after about 3 weeks
Description: (§2) Seeds of monocotyledonous or dicotyledonous crop plants are placed in wood-fibre pots in sandy loam and covered with soil. The test compounds, formulated in the form of wettable powders (WP), are then, as an aqueous suspension with a water application rate of 600 l/ha (converted), with 0.2% of wetting agent added, applied at various dosages to the surface of the covering soil. After the treatment, the pots are placed in a greenhouse and kept under good growth conditions for the test plants. The visual assessment of the suppression of growth in the test plants is carried out after a trial period of about 3 weeks by comparison with untreated controls (phytoregulatory activity in percent: 100% activity=maximum inhibition of plant growth, 0% activity=plant growth like that of an untreated control.)

Brassica napus (rape) [4] = test: Phytoregulatory pre-emergence action, BRSNW; type: in vivo; details: 80 g of a.i./ha, visual assessment after about 3 weeks
Description: as §2

SMILES	Efficacy in % (Alternaria solani)	Efficacy in % (Pyrenophora teres; application rate 1000 ppm)	inhibition at 50 µM (Fusarium proliferatum)	inhibition at 50 µM (Fusarium graminearum)	Efficacy in % (Pyrenophora teres; application rate 500 ppm)	inhibition at 50 µM (Aspergillus parasiticus)	Inhibition of the growth of useful or harmful plants in % SETVI [1]	Inhibition of the growth of useful or harmful plants in % TRZAS [2]	Inhibition of the growth of useful or harmful plants in % BRSNW (Brassica napus (rape) [3])	Inhibition of the growth of useful or harmful plants in % ORYSA (Oryza sativa (rice))	Inhibition of the growth of useful or harmful plants in % BRSNW (Brassica napus (rape) [4])
CC(C)(C)C(O)(COc1ccc(I)cc1)Cn1cncn1 (stereo not shown) [Compound 1]	94%	86%	> 80%	> 80%							
CC(C)(C)C(O)(CSc1ccc(I)cc1)Cn1cncn1 (stereo not shown) [Compound 3]			> 80%	> 80%							
CC(C)(C)C(O)(COc1ccc(Br)cc1)c1cncnc1 (stereo not shown) [Compound 11]	99%		> 80%	> 80%	100%	> 80%	70%	70%	60%	60%	80%
CC(C)(C)C(O)(CSc1ccc(Br)cc1)c1cncnc1 (stereo not shown) [Compound 13]			> 80%								
CC(C)C(O)(COc1ccc(Br)cc1)c1cncnc1 (stereo not shown) [Compound 21]			> 80%	> 80%							
CC(C)(C)C(O)(COc1ccc(Cl)cc1)c1cncnc1 (stereo not shown) [EP-A 0 028 755, Example 1, reference compound]	75%				93%		50%	50%	60%	40%	70%
CC(C)(C)C(O)(COc1ccc(Cl)cc1)Cn1cncn1 (stereo not shown) [EP-A 0 040 345, Example I-1, reference compound]	45%	57%									
